According to PMC10464304, “Refined read‐out: The hUHRF1 Tandem‐Tudor domain prefers binding to histone H3 tails containing K4me1 in the context of H3K9me2/3” (Protein Science : A Publication of the Protein Society, 2023):

Molecular target: T1, hUHRF1‐TTD WT (GST‐fused, residues 126–280) (Homo sapiens, UniProt Q96T88)
T1 construct: on previously defined borders (residues 126–280; Rothbart et al., [2012]) was N‐terminally fused to GST; made in house; host or cells: Escherichia coli
T1 sequence (Q96T88 126-280): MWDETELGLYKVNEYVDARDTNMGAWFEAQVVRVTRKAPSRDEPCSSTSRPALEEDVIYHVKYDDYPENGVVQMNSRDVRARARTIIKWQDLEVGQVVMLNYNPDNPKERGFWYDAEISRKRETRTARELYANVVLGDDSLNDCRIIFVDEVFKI
Assay: Equilibrium peptide binding titration by fluorescence anisotropy (FA), TTD WT
Method: The Tandem Tudor domain of hUHRF1 (UNIPROT Q96T88) on previously defined borders (residues 126–280; Rothbart et al., [2012]) was N‐terminally fused to GST. Mutations were introduced using an updated rolling circle protocol and validated by Sanger sequencing. Proteins were overexpressed in Escherichia coli by induction with 1 mM isopropyl‐β‐D‐thiogalactopyronoside (IPTG) when OD600 reached 0.6–0.8, and the culture was continued overnight at 20°C. The cells were harvested by centrifugation for 30 min, at 4°C and 3781 g. For purification, each pellet was resuspended in 30 mL sonication buffer (500 mM KCl, 20 mM HEPES pH 7.5, 10% v/v glycerol, and 0.2 mM dithiothreitol [DTT]) and sonicated for cell lysis (Q120 Sonicator, Active Motif). After centrifugation for 1 h at 4°C and 45,850 g, the soluble protein was purified using Glutathione Agarose 4B gravitational columns and dialyzed against dialysis buffer (200 mM KCl, 20 mM HEPES, 10% v/v glycerol, pH 7.5, and 0.2 mM DTT). […] Protein concentration was determined spectroscopically by A 280 and purity was verified on SDS‐PAGE.
Equilibrium peptide binding experiments were performed on a Jasco FP‐8300 spectrofluorometer with an automatic polarizer FDP‐837. […] Acquisitions were performed at 23°C with excitation at 493 nm and emission measured at 520 nm, slit width set to 5 nm for both, and multiple accumulations. […]

binding of TTD WT to the peptide (in words) (Supplemental Figure 3B, control data, FA titration) | preference for the double‐modified peptide (H3K4me1‐K9me2 versus H3K9me2 peptide, FA titrations with GST‐TTD WT (Figure S3a)) [fold] | Substance
weakly | – | ARTK(me1)QTARKSTGGKAPR-K(FITC) [H3K4me1, FITC‐labeled histone H3 (1-17) peptide with K4me1]
– | > 2 | ARTK(me1)QTARK(me2)STGGKAPRKQ-K(FITC) [H3K4me1‐K9me2, FITC‐labeled histone H3 (1-19) peptide with K4me1 and K9me2]
